Tests used:
K-562 cells = assay: Apoptosis detection test (TUNEL); format: cell-based, human; settings: 30 μM, 48 hours
Procedure: TUNEL test was used to detect any DNA fragmentation to determine if cell enters apoptosis process.
A total of 10 mL cell solution at the concentration of 1×10^6K-562 cells per mL was cultured with 10 cm cell culture dishes in an incubator supplied with 5% CO2 at 37° C. for 30 minutes so that cells could adapt to the environment. Tellimagrandin II solutions of different concentrations were added by order so that the final concentrations are 0, 10, 20, 30, 40 and 50 μM respectively. The solution was placed in incubator with 5% CO2 at 37° C. for 48 hours before being centrifuged at 3,500 rpm at 4° C. for 5 minutes. After removing the supernatant, the cells were rinsed by PBS once. A total of 1 mL 1% Trioxane (diluted from 10% Trioxane solution with PBS) was added and the solution was left to react at room temperature for 30 minutes to one hour. Then, the solution was centrifuged at 3,500 rpm at 4° C. for 5 minutes. After removing the supernatant, 70% ethanol was added and the solution was placed at −20° C. for 16-18 hours for cell fixation.
After cell fixation, the solution was centrifuged at 400 rpm at 4° C. for 10 minutes before removing the supernatant. […] Finally, 1 mL PBS was used to resuspend the cells before BD FACS can was used to detect the fluorescent signal and the quantitative results are in FIG. 15. […]

[1] = tested on: Heme oxygenase-1 (HO-1) in RAW264.7 cells; assay: Western blot analysis of Heme oxygenase-1 (HO-1); format: cell-based, mouse; settings: 25 or 50 μM with LPS, 24 hours
Procedure: The murine macrophage RAW264.7 cells were plated in 6 cm cell dishes at a seeding density of 5×10^6 cells/mL and incubated overnight. After overnight incubation, cells were treated with different concentrations of Tellimagrandin II (10, 25 and 50 μM) and LPS and incubated for 24 hours. Cells were washed twice with PBS, scraped and lysed on ice in RIPA buffer, and proteins were obtained. Heme oxygenase-1 expression was analyzed by Western blotting of the whole cell lysates. […] In FIG. 12, the first bar represents the control group, the second bar represents the test group with LPS only and the third, the fourth and fifth bars represent the test groups with 10, 25 and 50 […] Tellimagrandin II (N=3, Mean±SD).

Structure (SMILES): O=C(OC1O[C@@H]2COC(=O)c3cc(O)c(O)c(O)c3-c3c(cc(O)c(O)c3O)C(=O)O[C@H]2[C@H](OC(=O)c2cc(O)c(O)c(O)c2)[C@H]1OC(=O)c1cc(O)c(O)c(O)c1)c1cc(O)c(O)c(O)c1 (some centres unmarked) [Tellimagrandin II]
- DNA fragmentation, TUNEL fluorescent signal (K-562 cells): fluorescent signals were detected
- Heme oxygenase-1 expression [1]: significant increases
